From patent US20210345611A1, “EXTENDED AND CONTINUOUS RELEASE COMPOSITIONS FOR PLANT HEALTH AND METHOD OF USE” (Verdesian Life Sciences U.S., LLC, priority 2018, published 2021)

Assay: PGA stability in 250 mM sodium phosphate aqueous buffers (HPLC)
Assay type: physicochemical
Experimental: Analytical note: PGA measurements in this section are done on a free acid basis using HPLC techniques, with PGA peak in each analysis checked for purity using UV-Vis spectroscopy technique by comparison with a known standard reference material. Experiments were conducted to determine the relative stability of PGA to degradation in 250 mM sodium phosphate aqueous buffers at pH levels of interest representing pH levels commonly found in soils. PGA is sufficiently stable at the pH levels of interest. PGA/pH 5.75 L-Pyroglutamic acid was dissolved to a concentration of about 1.0% in 250 mM sodium phosphate aqueous buffer at pH of 5.75, and stored for 24 hours at 50 degrees C. […] PGA/pH 6.75 L-Pyroglutamic acid was dissolved to a concentration of about 1.0% in 250 mM sodium phosphate aqueous buffer at pH of 6.75, and stored for 24 hours at 50 degrees C. […] PGA/pH 7.75 L-Pyroglutamic acid was dissolved to a concentration of about 1.0% in 250 mM sodium phosphate aqueous buffer at pH of 7.75, and stored for 24 hours at 50 degrees C.

decomposition by HPLC analysis (about 1.0% in 250 mM sodium phosphate buffer pH 5.75, 24 hours at 50 degrees C): No detectable decomposition
decomposition by HPLC analysis (about 1.0% in 250 mM sodium phosphate buffer pH 6.75, 24 hours at 50 degrees C): No detectable decomposition
decomposition by HPLC analysis (about 1.0% in 250 mM sodium phosphate buffer pH 7.75, 24 hours at 50 degrees C): No detectable decomposition
Structure (SMILES): O=C1CC[C@@H](C(=O)O)N1 [L-Pyroglutamic acid]
